Measurements as given in ChEMBL document CHEMBL1201862, “PubChem BioAssay data set” (2004).
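Five concentrations, 48 hours, 96-well plates. At the GI50, growth is halved.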 Activity calls are given as the source filed them. Cut-off read from the data, not from the text of the source: active = GI50 up to about 1.1 µM and inactive = higher. Residues, ends and D or L forms follow the SMILES beside them. *: point of attachment. Boc = CC(C)(C)OC(=O)*; OBn = c1ccc(CO*)cc1

Assays:
Experiment in all cases: growth of human tumour cells (NCI), 48 h
[1] = system: SR
[2] = system: U-251
[3] = system: OVCAR-8
[4] = system: MOLT-4
[5] = system: A549
[6] = system: SF-295
[7] = system: MDA-N
[8] = system: HCT-15
[9] = system: M14
[10] = system: MDA-MB-435
[11] = system: IGROV-1
[12] = system: ACHN
[13] = system: SK-MEL-2
[14] = system: DU-145
[15] = system: NCI-H226
[16] = system: SK-MEL-28
[17] = system: NCI-H23
[18] = system: MDA-MB-231
[19] = system: KM12
[20] = system: SF-539

Compound | GI50 [1] | GI50 [2] | GI50 [3] | GI50 [4] | GI50 [5] | GI50 [6] | GI50 [7] | GI50 [8] [µM] | GI50 [9] | GI50 [10] | GI50 [11] | GI50 [12] | GI50 [13] | GI50 [14] | GI50 [15] | GI50 [16] | GI50 [17] | GI50 [18] | GI50 [19] | GI50 [20]
CCOC(CBr)OC1C(=O)OCC1(C)C (stereo unspecified) | > 100 µM (inactive) | > 100 µM (inactive) | > 100 µM (inactive) | > 100 µM (inactive) | > 100 µM (inactive) | > 100 µM (inactive) | > 100 µM (inactive) | > 100 | > 100 µM (inactive) | > 100 µM (inactive) | > 100 µM (inactive) | > 100 µM (inactive) | > 100 µM (inactive) | > 100 µM (inactive) | > 100 µM (inactive) | > 100 µM (inactive) | > 100 µM (inactive) | > 100 µM (inactive) | > 100 µM (inactive) | –
CC[P+](C#Cc1ccccc1)(c1ccccc1)c1ccccc1 | 2.33 µM (inactive) | 0.562 µM (active) | 1.76 µM (inactive) | 1.36 µM (inactive) | 3.08 µM (inactive) | 7.03 µM (inactive) | 1.56 µM (inactive) | 3.19 | 1.66 µM (inactive) | 1.24 µM (inactive) | 3.1 µM (inactive) | 3.94 µM (inactive) | 1.98 µM (inactive) | 3.46 µM (inactive) | 2.82 µM (inactive) | 1.95 µM (inactive) | 2.17 µM (inactive) | 3.18 µM (inactive) | 1.22 µM (inactive) | 1.79 µM (inactive)
N=c1oc2ccc(Cl)cc2cc1C(N)=O | 65.3 µM (inactive) | 40.4 µM (inactive) | 33.2 µM (inactive) | > 100 µM (inactive) | 42.6 µM (inactive) | – | 25.1 µM (inactive) | 29.4 | 27.5 µM (inactive) | 31.7 µM (inactive) | 21.4 µM (inactive) | 24.4 µM (inactive) | 13.3 µM (inactive) | 35.9 µM (inactive) | 28.2 µM (inactive) | 29 µM (inactive) | 22.4 µM (inactive) | 24.4 µM (inactive) | 24.2 µM (inactive) | 31.3 µM (inactive)
CCC(O)(Cc1ccc(OC)cc1)c1ccc(OC)cc1 (stereo unspecified) | 0.0641 µM (active) | > 100 µM (inactive) | > 100 µM (inactive) | > 100 µM (inactive) | > 100 µM (inactive) | > 100 µM (inactive) | > 100 µM (inactive) | > 100 | > 100 µM (inactive) | > 100 µM (inactive) | > 100 µM (inactive) | > 100 µM (inactive) | > 100 µM (inactive) | > 100 µM (inactive) | > 100 µM (inactive) | – | > 100 µM (inactive) | > 100 µM (inactive) | > 100 µM (inactive) | > 100 µM (inactive)
CC1=C2CC(C)(C)/C=C\C(=O)/C(C)=C\C3=C[C@H](C)C[C@]3(O2)C1=O | 0.243 µM (active) | 3.86 µM (inactive) | 0.9 µM (active) | 0.195 µM (active) | 4.47 µM (inactive) | 8.87 µM (inactive) | 0.914 µM (active) | 0.627 | 0.494 µM (active) | 0.706 µM (active) | 1.56 µM (inactive) | 1.03 µM (active) | 2.4 µM (inactive) | 4.67 µM (inactive) | 3.46 µM (inactive) | 0.798 µM (active) | 1.08 µM (active) | 1.05 µM (active) | 2.21 µM (inactive) | 0.946 µM (active)
O=[N+]([O-])c1ccc(NN=C2c3ccccc3Cc3ccccc32)c([N+](=O)[O-])c1 | 2.07 µM (inactive) | 4.5 µM (inactive) | 45.8 µM (inactive) | 6.87 µM (inactive) | > 21.1 µM (inactive) | 3.71 µM (inactive) | 1.88 µM (inactive) | 6.43 | 5.81 µM (inactive) | 1.79 µM (inactive) | 4.97 µM (inactive) | 17.7 µM (inactive) | 3.44 µM (inactive) | > 30.4 µM (inactive) | 29.6 µM (inactive) | > 81.1 µM (inactive) | 15 µM (inactive) | 24.4 µM (inactive) | 2.98 µM (inactive) | 8.79 µM (inactive)
CC(=O)O[C@H]1C(=O)[C@@]2(C)[C@H]([C@H](OC(=O)c3ccc([N+](=O)[O-])cc3)[C@]3(O)C[C@H](OC(=O)[C@H](O)[C@@H](NC(=O)c4ccccc4)c4ccccc4)C(C)=C1C3(C)C)[C@]1(OC(C)=O)CO[C@@H]1C[C@@H]2O | > 25 µM (inactive) | > 25 µM (inactive) | > 25 µM (inactive) | > 25 µM (inactive) | > 25 µM (inactive) | > 25 µM (inactive) | 16.8 µM (inactive) | > 25 | > 25 µM (inactive) | > 25 µM (inactive) | > 25 µM (inactive) | > 25 µM (inactive) | – | > 25 µM (inactive) | > 25 µM (inactive) | > 25 µM (inactive) | > 25 µM (inactive) | > 25 µM (inactive) | > 25 µM (inactive) | > 25 µM (inactive)
CCOC(=O)NC(Nc1c(F)c(F)c(F)c(F)c1F)(C(F)(F)F)C(F)(F)F | > 100 µM (inactive) | > 100 µM (inactive) | > 100 µM (inactive) | > 100 µM (inactive) | > 100 µM (inactive) | > 100 µM (inactive) | > 100 µM (inactive) | > 100 | > 100 µM (inactive) | > 100 µM (inactive) | > 100 µM (inactive) | > 100 µM (inactive) | > 100 µM (inactive) | > 100 µM (inactive) | > 100 µM (inactive) | > 100 µM (inactive) | > 100 µM (inactive) | > 100 µM (inactive) | > 100 µM (inactive) | > 100 µM (inactive)
C=CCC1C(=O)Nc2cccc3ncn(c23)C1=O (stereo unspecified) | > 100 µM (inactive) | > 100 µM (inactive) | > 100 µM (inactive) | > 100 µM (inactive) | > 100 µM (inactive) | > 100 µM (inactive) | > 100 µM (inactive) | > 100 | > 100 µM (inactive) | > 100 µM (inactive) | > 100 µM (inactive) | > 100 µM (inactive) | > 100 µM (inactive) | > 100 µM (inactive) | > 100 µM (inactive) | > 100 µM (inactive) | > 100 µM (inactive) | > 100 µM (inactive) | 48.9 µM (inactive) | > 100 µM (inactive)
CC(C)(C)OC(=O)NC(Cc1ccc(OCc2ccccc2)cn1)C(=O)O (stereo unspecified) | > 100 µM (inactive) | > 100 µM (inactive) | > 100 µM (inactive) | – | > 100 µM (inactive) | > 100 µM (inactive) | > 100 µM (inactive) | > 100 | – | > 100 µM (inactive) | > 100 µM (inactive) | > 100 µM (inactive) | – | > 100 µM (inactive) | > 100 µM (inactive) | > 100 µM (inactive) | > 100 µM (inactive) | > 100 µM (inactive) | > 100 µM (inactive) | > 100 µM (inactive)
Cc1ccc2nc(-c3ccc(N)c(Br)c3)sc2c1 | 11 µM (inactive) | 37.5 µM (inactive) | 48.2 µM (inactive) | 4.33 µM (inactive) | 29 µM (inactive) | 34.8 µM (inactive) | > 100 µM (inactive) | 7.01 | 26.7 µM (inactive) | 5.4 µM (inactive) | – | 36.3 µM (inactive) | 27.9 µM (inactive) | 31.5 µM (inactive) | 17.5 µM (inactive) | > 100 µM (inactive) | 22.2 µM (inactive) | 25.3 µM (inactive) | 7.41 µM (inactive) | 33.1 µM (inactive)
O=C(Cn1c(C(=O)/C=C/c2cccs2)nc2ccccc21)c1ccc(Cl)cc1 | 3.09 µM (inactive) | 14.4 µM (inactive) | – | – | 23.3 µM (inactive) | – | 21.1 µM (inactive) | 21.5 | 18.6 µM (inactive) | 12.7 µM (inactive) | 16.7 µM (inactive) | 26.6 µM (inactive) | 6 µM (inactive) | 26.7 µM (inactive) | 53.8 µM (inactive) | 30.5 µM (inactive) | 14.7 µM (inactive) | 16.8 µM (inactive) | 11.1 µM (inactive) | 32.2 µM (inactive)
CC1=Nc2sc3c(c2C2=NCCN12)CCCC3 | 23.2 µM (inactive) | 29 µM (inactive) | 15.3 µM (inactive) | 26.1 µM (inactive) | – | 33.5 µM (inactive) | 22.3 µM (inactive) | 29.9 | – | 34 µM (inactive) | 18.3 µM (inactive) | 25.8 µM (inactive) | 35.8 µM (inactive) | 30.5 µM (inactive) | 15.1 µM (inactive) | 28.6 µM (inactive) | 18.7 µM (inactive) | 33.3 µM (inactive) | 16.8 µM (inactive) | –
O=C(C=P(c1ccccc1)(c1ccccc1)c1ccccc1)c1ccc(-c2cccc([N+](=O)[O-])c2)cc1 | 3.69 µM (inactive) | 3.84 µM (inactive) | – | 2.96 µM (inactive) | 3.64 µM (inactive) | 3.6 µM (inactive) | 2.88 µM (inactive) | 3.94 | 2.05 µM (inactive) | 2.39 µM (inactive) | – | 2.82 µM (inactive) | 1.63 µM (inactive) | 6.07 µM (inactive) | 5.01 µM (inactive) | 4.98 µM (inactive) | 4.36 µM (inactive) | 2.65 µM (inactive) | 3.85 µM (inactive) | 4.46 µM (inactive)
CC(C)CC(NC(=O)OC(C)(C)C)C(=O)NC(CC(=O)OCc1ccccc1)C(=O)OCc1ccccc1 (stereo not drawn) (Boc-Leu-Asp(OBn)-OBn; configuration not given here) | 25.8 µM (inactive) | 25.5 µM (inactive) | > 100 µM (inactive) | 31 µM (inactive) | > 100 µM (inactive) | 43.7 µM (inactive) | 42.2 µM (inactive) | – | 19.2 µM (inactive) | 40.1 µM (inactive) | > 10 µM (inactive) | – | 63 µM (inactive) | 37.9 µM (inactive) | 57.9 µM (inactive) | – | 32.4 µM (inactive) | 39.4 µM (inactive) | 41.8 µM (inactive) | 31 µM (inactive)
